According to patent US20250313879A1, “Fluorescent Probe for Detecting Peptide Bond Hydrolase” (The University of Tokyo, priority 2022, published 2025):
In brackets after ≈: the same amount, converted by molar mass.

What was measured:
[1] = system: aminopeptidase activity in human plasma sample; experiment: Enzyme activity assay in microdevice with human plasma, aminopeptidase probes; assay type: biochemical; details: 50 μM probe, 37° C. for 2 hours
Description: • 1. Ala-sHMRG as a fluorescent probe for detecting aminopeptidase activity was diluted with an assay buffer to 100 μM. The composition of the assay buffer is 100 mM HEPES-NaOH (pH 7.4), 1 mM MgCl2, 0.1% BSA, 1 mM DTT, 1 mM Triton X-100, • 2. Next, a human plasma sample was diluted by 500 times with the above assay buffer, and mixed in an equal amount with the diluted solution of the probe. At this time, the final concentrations of both are 50 μM for Ala-sHMRG and 1,000 fold dilution for the human plasma sample. • 3. The mixed solution of both was then added to a microdevice, followed by the addition of sealing oil to enclose the solution in each well. • 4. The microdevice in which the solution was enclosed was incubated at 37° C. for 4 hours, and then the fluorescence intensity of each well was measured with a fluorescence microscope.
• 1. Leu-sHMRG as a fluorescent probe for detecting aminopeptidase activity was diluted with an assay buffer to 100 μM. The composition of the assay buffer is 100 mM HEPES-NaOH (pH 7.4), 1 mM MgCl2, 1 mM DTT, 3 mM Triton X-100. • 2. Next, a human plasma sample was diluted by 2,500 times with the above assay buffer, and mixed in an equal amount with the diluted solution of the probe. At this time, the final concentrations of both are 50 μM for Leu-sHMRG and 5,000 fold dilution for the human plasma sample. • 3. The mixed solution of both was then added to a microdevice, followed by the addition of sealing oil to enclose the solution in each well. • 4. The microdevice in which the solution was enclosed was incubated at 37° C. for 4 hours, and then the fluorescence intensity of each well was measured with a fluorescence microscope.
(§1) • 5. Met-sHMRG as a fluorescent probe for detecting aminopeptidase activity was diluted with an assay buffer to 100 μM. The composition of the assay buffer is 100 mM HEPES-NaOH (pH 7.4), 1 mM MgCl2, 1 mM CaCl2, 1 mM DTT, 3 mM Triton X-100. • 6. Next, a human plasma sample was diluted by 500 times with the above assay buffer, and mixed in an equal amount with the diluted solution of the probe. At this time, the final concentrations of both are 50 μM for Met-sHMRG and 1,000 fold dilution for the human plasma sample. • 7. The mixed solution of both was then added to a microdevice, followed by the addition of sealing oil to enclose the solution in each well. • 8. The microdevice in which the solution was enclosed was incubated at 37° C. for 2 hours, and then the fluorescence intensity of each well was measured with a fluorescence microscope.
as §1, with “• 9. Tyr-sHMRG” for “• 5. Met-sHMRG”, “• 10.” for “• 6.”, “for Tyr-sHMRG” for “for Met-sHMRG”, “• 11.” for “• 7.”, “• 12.” for “• 8.”, “for 4” for “for 2”
• 1. Lys-sHMRG as a fluorescent probe for detecting aminopeptidase activity was diluted with an assay buffer to 100 μM. The composition of the assay buffer is 100 mM HEPES-NaOH (pH 7.4), 1 mM MgCl2, 1 mM CaCl2, 1 mM DTT, 3 mM Triton X-100. • 2. Next, a human plasma sample was diluted by 10,000 times with the above assay buffer, and mixed in an equal amount with the diluted solution of the probe. At this time, the final concentrations of both are 50 μM for Lys-sHMRG and 20,000 fold dilution for the human plasma sample. • 3. […]

[2] = system: CD13; experiment: Diagnostic experiment of pancreatic cancer utilizing single-molecule enzyme activity of CD13; assay type: biochemical, human; details: patients with pancreatic cancer compared with healthy subjects; 50 μM probe, plasma 20,000 fold dilution, 37° C. 2 hours
Description: In order to detect the single-molecule enzyme activity of CD13, an experiment to verify the availability of a probe to which […] is bonded as a reaction point (in General Formula (I) or (II), an alanine residue was introduced as —CO—R0 or —CO—R^10) to detect a pancreatic cancer biomarker was performed in the following procedures. • 1. Ala-sSiR as a CD13 detecting probe was diluted with an assay buffer to 100 μM. The composition of the assay buffer is 100 mM HEPES-NaOH (pH 7.4), 1 mM MgCl2, 1 mM CaCl2), 1 mM DTT, 3 mM Triton X-100. • 2. Next, human plasma samples collected from 30 patients with pancreatic cancer and 30 healthy subjects were each diluted by 10,000 times with the above assay buffer, and mixed in an equal amount with the diluted solution of Ala-sSiR. […] The microdevice in which the solution was enclosed was incubated at 37° C. for 2 hours, and then the fluorescence intensity of each well was measured with a fluorescence microscope.
Specifically, in this example, an ROC curve for determination based on the enzyme activity of CD13 determined based on the proportion of wells with a luminance of 2500 AU or more is created, and when a threshold is subtracted at the time when the number of wells of a signal is 3%, the sensitivity is 27% and the specificity is 100% (the right view of FIG. 3). […]

[3] = Solubility in sealing oil (hexadecane); assay type: physicochemical; details: oil or lipid, kinetic from dmso stock, room temperature (25° C.), three tests, average value±standard deviation
Description: That is, 1 μL of a 10 mM DMSO solution of the test compound was added with respect to 100 μL of hexadecane as sealing oil, and the mixture was sonicated and suspended at room temperature (25° C.) for 1 minute. Thereafter, the solution was centrifuged for 30 seconds, 50 μL of the supernatant was collected and mixed with 100 μL of methanol, and a compound dissolved in hexadecane was extracted. Thereafter, the methanol solution from which the compound was extracted was analyzed by ultra performance liquid chromatography (UPLC) (eluent: A/B=95/5>5/95, A: 0.1% formic acid-containing 100% H2O, B: 0.1% formic acid-containing 100% CH3CN), and the concentration of the compound in the methanol solution was calculated from the peak area. In the calculation of the solution concentration using the UPLC peak area, solutions having a plurality of concentrations were prepared and measured for each compound, then a calibration curve was prepared (FIG. 5), and the calculation was performed according to the calibration curve.

[4] = molecular target: T1, aminopeptidase A (Homo sapiens, UniProt Q07075); experiment: Signal/noise ratio of enzymolysate in cuvette; assay type: biochemical; details: 10 μM probe, 170 ng/mL aminopeptidase A, 25° C. 11 hours, @616 nm
T1 sequence (Q07075 whole entry, species assumed): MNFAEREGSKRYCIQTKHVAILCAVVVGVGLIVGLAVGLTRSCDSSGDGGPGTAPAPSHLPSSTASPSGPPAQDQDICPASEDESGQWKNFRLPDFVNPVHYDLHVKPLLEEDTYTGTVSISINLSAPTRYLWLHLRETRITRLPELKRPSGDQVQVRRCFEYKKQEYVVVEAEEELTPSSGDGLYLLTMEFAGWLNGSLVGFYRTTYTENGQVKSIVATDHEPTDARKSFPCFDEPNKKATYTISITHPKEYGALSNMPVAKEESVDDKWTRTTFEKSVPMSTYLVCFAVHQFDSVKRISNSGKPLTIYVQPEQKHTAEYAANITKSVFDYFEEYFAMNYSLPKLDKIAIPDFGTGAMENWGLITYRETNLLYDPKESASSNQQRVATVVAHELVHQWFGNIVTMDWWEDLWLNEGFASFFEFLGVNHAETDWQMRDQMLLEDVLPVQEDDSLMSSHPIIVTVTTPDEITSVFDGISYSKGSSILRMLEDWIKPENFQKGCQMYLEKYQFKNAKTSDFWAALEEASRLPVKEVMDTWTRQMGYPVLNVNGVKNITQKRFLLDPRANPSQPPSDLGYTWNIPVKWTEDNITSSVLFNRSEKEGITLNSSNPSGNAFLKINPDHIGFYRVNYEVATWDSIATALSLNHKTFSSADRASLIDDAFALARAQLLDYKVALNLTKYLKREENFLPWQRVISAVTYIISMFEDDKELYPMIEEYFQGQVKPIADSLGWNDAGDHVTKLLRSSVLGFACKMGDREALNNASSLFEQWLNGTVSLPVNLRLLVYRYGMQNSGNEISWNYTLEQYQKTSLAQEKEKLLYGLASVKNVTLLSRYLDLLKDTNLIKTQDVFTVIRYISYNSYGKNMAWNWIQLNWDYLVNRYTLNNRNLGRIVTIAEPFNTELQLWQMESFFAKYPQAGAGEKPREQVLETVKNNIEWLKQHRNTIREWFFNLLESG
Description: (§2) For two types of compounds Glu-sSiR (PB206/Example 12) and GP-sHMRG (PB109/Example 7), the signal/noise ratios of the enzymolysates before and after the enzyme reaction in the cuvette and the microdevice were each measured as follows. In the following experiments, the composition of the assay buffer is 100 mM HEPES-NaOH (pH 7.4), 1 mM MgCl2, 1 mM CaCl2), […].
Glu-sSiR was diluted with an assay buffer so as to be 10 μM, then added to a quartz cuvette, and the fluorescence spectrum before the enzyme reaction was measured with a fluorometer (excitation wavelength: 570 nm). Thereafter, aminopeptidase A was added so that the concentration in the solution was 170 ng/mL, the solution was incubated at 25° C. for 11 hours, and then the fluorescence spectrum was measured. The fluorescence spectra before and after the enzyme reaction were compared, the ratio of the values at a wavelength at which the fluorescence intensity was maximized was calculated as the signal/noise ratio of the enzymolysate, the ratio was 32 times (@616 nm) (see FIG. 7A).

[5] = molecular target: T1, aminopeptidase A; experiment: Signal/noise ratio of enzymolysate in microdevice; assay type: biochemical
Description: as §2
For Glu-sSiR, three kinds of solutions of (i) only an assay buffer, (ii) 30 μM of Glu-sSiR, and (iii) 30 μM of Glu-sSiR and 0.2 ng/mL of aminopeptidase A were prepared, and each solution was added to a microdevice, followed by the addition of sealing oil to enclose the solution in each well. The microdevice in which the solution was enclosed was incubated at 37° C. for 4 hours, and then the fluorescence intensity of each well was measured with a fluorescence microscope. When a difference between the average values of the fluorescence intensities of the respective wells in (ii) and (i) was defined as noise, a difference between the average value of the fluorescence intensities of the wells in which the enzyme was encapsulated in (iii) and the average value of the fluorescence intensities of the respective wells in (i) was defined as a signal, and a ratio of these values was calculated as the signal/noise ratio of the enzymolysate, the ratio was 8.3 times (see FIG. 8, panel A). […]

Structure (SMILES)	fluorescence intensity of wells in which the reacting enzyme was enclosed ([1]; human plasma 20,000 fold dilution)	number of wells in which the luminance is 2,500 AU or more (CD13 considered enclosed) [2]	fluorescence intensity of wells in which the reacting enzyme was enclosed ([1]; human plasma 1,000 fold dilution)	solubility at 1 min [3] [µM]	signal/noise ratio of the enzymolysate [4] [times]	ratio of the signal/noise ratio in the microdevice to the signal/noise ratio in the cuvette ([5]; aminopeptidase A)	signal/noise ratio of the enzymolysate ([5]; microdevice, 30 μM probe, 0.2 ng/mL aminopeptidase A, 37° C. 4 hours) [times]
Cc1ccc(S(=O)(=O)O)cc1C1=C2C=CC(=N)C=C2[Si](C)(C)c2cc(NC(=O)[C@H](C)N)ccc21 [Ala-sSiR]	increase in fluorescence intensity was observed	significant increase					
Cc1ccc(S(=O)(=O)O)cc1C1=C2C=CC(=N)C=C2[Si](C)(C)c2cc(NC(=O)[C@@H](N)CCC(=O)O)ccc21 [Glu-sSiR]			increase in fluorescence intensity was observed	0.3 ± 0.096 (≈ 0.166 µg/mL)	32	0.26	8.3
